Assay [1] relates to 3D7 P. falciparum strain. The experiment in a line: parasite proliferation assay in infected red blood cells (SYBR Green I). In kind it is cell-based, Plasmodium falciparum. Conditions: Plasmodium falciparum, 3D7, Erythrocyte, 3D7 strain; read-out: EC50 3D7 strain. In outline: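 P. falciparum 3D7 grown in O+ human erythrocytes to 3–8% parasitemia and exposed to compounds. Proliferation read as the increase in parasite DNA. Detection used SYBR Green I in saponin/triton-X/EDTA lysis buffer, with overnight lysis at room temperature.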

The subject of assay [2] is W2 strain. The experiment in a line: parasite proliferation assay in infected red blood cells (SYBR Green I), W2 strain. Type of assay: cell-based, Plasmodium falciparum. The settings on record: Plasmodium falciparum, Erythrocyte. The text has this:
Compounds of the invention can be assayed to measure their capacity to inhibit proliferation of parasitemia in infected red blood cells. The proliferation is quantified by the addition of SYBR Green I (INVITROGEN)® dye which has a high affinity for double stranded DNA.

SMILES strings stand for the structures.

A word on the EC50: it is the concentration giving half of the maximal effect. On to `CC(C)C[C@H](N)C(=O)N1CCn2c(nc(-c3ccc(F)cc3)c2Nc2ccc(Cl)cc2)C1` [Compound 453], for which the EC50 was found to be 20 nM in assay [1] and 21 nM in assay [2].
The matching figures for `Cc1ccc(Nc2c(-c3cccc(F)c3)nc3n2C(C)(C)CN(C(=O)C(C)(C)N)C3)cc1` [Compound 593]: 5060 nM and 3940 nM.
Consider `Cc1ccc(Nc2c(-c3ccc(F)cc3)nc3n2CCNC3(C)C)cc1C(=O)O` [Compound 526], for which the concentration giving a half-maximal response (EC50) in assay [1] was 1120 nM; in assay [2], 974 nM.
Consider `CC(C)[C@H](O)C(=O)N1CCn2c(nc(-c3ccc(F)cc3)c2Nc2ccc(Cl)cc2)C1` [Compound 455], for which the EC50 in assay [1] turned out to be 10 nM; in assay [2], 8 nM.
Take `Cc1ccc(Nc2c(-c3ccc(F)cc3)nc3n2CCN(C(=O)[C@@H](N)Cc2cscn2)C3)cc1` [Compound 486]: the values for the EC50 in assay [1] and in assay [2] were 30 nM and 16 nM, respectively.
As for `Cc1ccc(Nc2c(-c3ccc(F)cc3)nc3n2CCN(C(=O)[C@@H](N)CC(C)C)C3)cc1` [Compound 480], the EC50 amounted to 30 nM in assay [1] and 22 nM in assay [2].
Regarding `C[C@H](N)C(=O)N1CCn2c(nc(-c3ccc(F)cc3)c2Nc2ccc(Cl)cc2)C1` [Compound 448], the EC50 in assay [1] worked out at 20 nM; in assay [2] it was 22 nM.
On to `CC1(C)NCCn2c1nc(-c1ccc(F)cc1)c2Nc1cc(F)c(F)c(F)c1` [Compound 555], for which the EC50 is 10 nM in assay [1] and 16 nM in assay [2].
As to `CC(C)[C@H]1NC(=O)Cn2c1nc(-c1ccc(F)cc1)c2Nc1ccc(Cl)cc1` [Compound 549], the figures for the EC50 in assay [1] and in assay [2] were 1700 nM and 3260 nM, respectively.
Take `CC1(C)NC(=O)Cn2c1nc(-c1ccc(F)cc1)c2Nc1ccc(Cl)c(F)c1` [Compound 511]: the EC50 stood at 40 nM in assay [1] and 65 nM in assay [2].
Consider `N[C@@H](CC1CCC1)C(=O)N1CCn2c(nc(-c3ccc(F)cc3)c2Nc2ccc(Cl)cc2)C1` [Compound 452], for which the concentration giving a half-maximal response (EC50) in assay [1] was 20 nM; in assay [2], 19 nM.
Regarding `CC(C)[C@@H]1NC(=O)Cn2c1nc(-c1ccc(F)cc1)c2Nc1ccc(Cl)c(F)c1` [Compound 562], the EC50 was found to be 4820 nM in assay [1] and 6290 nM in assay [2].
The matching figures for `N[C@H](C(=O)N1CCn2c(nc(-c3ccc(F)cc3)c2Nc2ccc(Cl)c(F)c2)C1)C1CC1` [Compound 487]: 40 nM and 31 nM.
Take `Cc1ccc(C[C@H](N)C(=O)N2CCn3c(nc(-c4ccc(F)cc4)c3Nc3ccc(Cl)cc3)C2)cc1` [Compound 459]: the EC50 in assay [1] was 40 nM; in assay [2], 24 nM.
The matching figures for `Cc1ccc(Nc2c(-c3ccc(F)cc3)nc3n2CCN(C(=O)[C@@H](C)NCc2ccccc2)C3)cc1` [Compound 402]: 120 nM and 122 nM.
In the case of `N[C@H](C(=O)N1CCn2c(nc(-c3ccc(F)cc3)c2Nc2ccc(F)c(F)c2)C1)c1ccc(F)cc1` [Compound 436], the EC50 in assay [1] turned out to be 30 nM; in assay [2] it was 52 nM.
The matching figures for `CC1(C)c2nc(-c3ccc(F)cc3)c(Nc3ccc(C#N)c(Cl)c3)n2CCN1C(=O)CN` [Compound 534]: 40 nM and 19 nM.
As for `Cc1cc(Nc2c(-c3ccc(F)cc3)nc3n2CC(=O)NC3(C)C)nn1C` [Compound 560], the values for the EC50 in assay [1] and in assay [2] were 3610 nM and 5220 nM, respectively.
Turning to `CC(C)[C@@H](O)C(=O)N1CCn2c(nc(-c3ccc(F)cc3)c2Nc2ccc(Cl)cc2)C1` [Compound 456], the EC50 in assay [1] turned out to be 20 nM; in assay [2], 15 nM.
As for `Cc1ccc(Nc2c(-c3ccc(F)cc3)nc3n2CCN(C(=O)CN)C3(C)C)cc1` [Compound 409], the EC50 in assay [1] was 10 nM; in assay [2], 6 nM.
Consider `Cc1ccc(Nc2c(-c3ccc(F)cc3)nc3n2CCN(C(=O)CN)C3(C)C)cc1Cl` [Compound 532], for which the figures for the EC50 in assay [1] and in assay [2] were 20 nM and 9 nM, respectively.
The matching figures for `Cc1ccc(Nc2c(-c3cc(F)ccc3F)nc3n2CCN(C(=O)C(C)(C)N)C3)cc1` [Compound 408]: 930 nM and 908 nM.
Consider `CC(C)[C@H](N)C(=O)N1CCn2c(nc(-c3ccc(F)cc3)c2Nc2ccc(F)cc2)C1` [Compound 464], for which the EC50 was 30 nM in assay [1] and 24 nM in assay [2].
The matching figures for `Cc1ccc(Nc2c(-c3ccc(F)cc3)nc3n2CCN(C(=O)[C@@H](N)c2ccc(F)cc2)C3)cc1` [Compound 482]: 20 nM and 9 nM.
As for `Cc1cc(Nc2c(-c3ccc(F)cc3)nc3n2CC(=O)NC3(C)C)ccc1F` [Compound 544], the EC50 amounted to 20 nM in assay [1] and 37 nM in assay [2].
The matching figures for `CC1(C)NCCn2c1nc(-c1ccc(F)cc1)c2Nc1cccc(F)c1` [Compound 514]: 30 nM and 24 nM.
Turning to `CC1(C)NC(=O)Cn2c1nc(-c1ccc(F)cc1)c2Nc1cnc2ccccc2c1` [Compound 566], the results for the EC50 in assay [1] and in assay [2] were 5480 nM and 4460 nM, respectively.
In the case of `CC1(C)Cn2c(nc(-c3ccc(F)cc3)c2Nc2ccc(F)c(F)c2)CN1C(=O)CN` [Compound 575], the figures for the EC50 in assay [1] and in assay [2] were 80 nM and 81 nM, respectively.
On to `CN1CCN(c2ccc(Nc3c(-c4ccc(F)cc4)nc4n3CCN(C(=O)CN)C4(C)C)cc2)CC1` [Compound 571], for which the EC50 in assay [1] came out at 6200 nM; in assay [2], 7480 nM.
As to `CC(C)(C)OC(=O)NCC(=O)N1CCn2cc(-c3ccc(F)cc3)nc2C1` [Compound 540, tert-butyl 2-(2-(4-fluorophenyl)-5,6-dihydroimidazo[1,2-a]pyrazin-7(8H)-yl)-2-oxoethylcarbamate], the results for the EC50 in assay [1] and in assay [2] were 8420 nM and 9810 nM, respectively.
With `CC(C)(N)C(=O)N1CCn2c(nc(-c3ccc(F)cc3)c2Nc2ccc(Cl)cc2)C1(C)C` [Compound 584], the EC50 in assay [1] was determined as 20 nM; in assay [2], 21 nM.
For the compound `C[C@@H]1NC(=O)Cn2c1nc(-c1ccc(F)cc1)c2Nc1ccc(Cl)cc1` [Compound 563], the EC50 was determined as 310 nM in assay [1] and 445 nM in assay [2].
For `CC1(C)Cn2c(nc(-c3ccc(F)cc3)c2Nc2ccc(C#N)c(F)c2)CN1C(=O)CN` [Compound 577], the EC50 in assay [1] came out at 630 nM; in assay [2], 611 nM.
On to `C[C@H](N)C(=O)N1CCn2c(nc(-c3ccc(F)cc3)c2Nc2ccc(F)c(F)c2)C1` [Compound 435], for which the EC50 in assay [1] turned out to be 50 nM; in assay [2], 98 nM.
As to `COc1ccc(Nc2c(-c3ccc(F)cc3)nc3n2CC(=O)NC3(C)C)cn1` [Compound 545], the results for the EC50 in assay [1] and in assay [2] were 3380 nM and 5620 nM, respectively.
As for `CC[C@H](C)[C@H](N)C(=O)N1CCn2c(nc(-c3ccc(F)cc3)c2Nc2ccc(Cl)cc2)C1` [Compound 454], the values for the EC50 in assay [1] and in assay [2] were 20 nM and 8 nM, respectively.
`Cc1ccc(Nc2c(-c3ccc(F)cc3)nc3n2CCNC3(C)C)cc1F` [Compound 541]: the EC50 in assay [1] and in assay [2] was 10 nM each time.
For `CN1CCN(c2ccc(Nc3c(-c4ccc(F)cc4)nc4n3CC(=O)NC4(C)C)cc2)CC1` [Compound 568], the EC50 in assay [1] is above 8040 nM; in assay [2], above 11300 nM.
With `CC1(C)Cn2c(nc(-c3ccc(F)cc3)c2Nc2ccc(F)cc2)CN1` [Compound 579], the values for the EC50 in assay [1] and in assay [2] were 180 nM and 146 nM, respectively.
As for `CC(C)(N)C(=O)N1CCn2c(nc(-c3ccc(F)cc3)c2Nc2ccc(Cl)c(Cl)c2)C1` [Compound 410], the EC50 worked out at 60 nM in assay [1] and 37 nM in assay [2].
On to `Cc1ccc(Nc2c(-c3ccc(F)cc3)nc3n2C(C)(C)C(=O)N(C)C3(C)C)cc1` [Compound 538], for which the EC50 in assay [1] turned out to be 7670 nM; in assay [2] it was 8060 nM.
As for `CC1(C)c2nc(-c3ccc(F)cc3)c(Nc3ccc(S(C)(=O)=O)cc3)n2CCN1C(=O)CN` [Compound 570], the EC50 came to 5680 nM in assay [1] and 5560 nM in assay [2].
Take `CC1(C)NC(=O)Cn2c1nc(-c1ccc(F)cc1)c2Nc1ccc(F)c(Cl)c1` [Compound 513]: the EC50 in assay [1] came out at 170 nM; in assay [2], 195 nM.
For `CC(C)(N)C(=O)N1CCn2c(nc(-c3ccc(F)cc3)c2Nc2ccc(F)cc2)C1(C)C` [Compound 583], in that order: 10 nM and 9 nM.
With `CC1(C)NCCn2c1nc(-c1ccc(F)cc1)c2Nc1ccc(F)cc1` [Compound 493], the EC50 in assay [1] was found to be 4 nM; in assay [2], 5 nM.
In the case of `CC(C)C[C@H](N)C(=O)N1CCn2c(nc(-c3ccc(F)cc3)c2Nc2ccc(F)c(F)c2)C1` [Compound 439], the EC50 worked out at 30 nM in assay [1] and 40 nM in assay [2].
As to `CC1(C)c2nc(-c3ccc(F)cc3)c(Nc3ccc(Cl)c(F)c3)n2CCN1C(=O)CN` [Compound 419], the EC50 in assay [1] was determined as 30 nM; in assay [2], 24 nM.
Consider `Cc1ccc(Nc2c(-c3ccc(Cl)c(F)c3)nc3n2CCN(C(=O)CN)C3)cc1` [Compound 520], for which the EC50 in assay [1] came to 160 nM; in assay [2], 158 nM.
Regarding `Cc1ccc(Nc2c(-c3ccc(F)cc3)nc3n2CCN(C(=O)CN)C3(C)C)cc1F` [Compound 533], the EC50 in assay [1] stood at 30 nM; in assay [2], 22 nM.
In the case of `CC(C)N(c1cccc(F)c1)c1c(-c2ccc(F)cc2)nc2n1CCNC2` [Compound 445], the EC50 in assay [1] worked out at 2600 nM; in assay [2], 3270 nM.
In the case of `CC[C@H](C)[C@H](N)C(=O)N1CCn2c(nc(-c3ccc(F)cc3)c2Nc2ccc(F)cc2)C1` [Compound 469], the EC50 in assay [1] was found to be 20 nM; in assay [2] it was 16 nM.
On to `CN1CC(C)(C)n2c(nc(-c3ccc(F)cc3)c2Nc2ccc(F)cc2)C1(C)C` [Compound 536], for which the EC50 in assay [1] came to 6400 nM; in assay [2] it was 5930 nM.
In the case of `CC1(C)Cn2c(nc(-c3ccc(F)cc3)c2Nc2ccc(Cl)cc2)CN1C(=O)CN` [Compound 557], the half-maximal effective concentration (EC50) in assay [1] and in assay [2] was 20 nM throughout.

These data come from patent US9469645B2, “Compounds and compositions for the treatment of parasitic diseases” (Novartis AG, priority 2009, dated 2016).
